According to patent publication EP0073715A1, “Brominated compounds for use in opacifying products” (Société dite: GUERBET S.A., priority 1981, dated 1983):

Assay: Protein binding (Brodersen technique)
Conditions: weaker interaction means better tolerance, read-out: Liaison protéique (converted)
Source text: Plus cette interaction est faible et meilleure est la tolérance.

O=C(CCCCC(=O)Nc1c(I)cc(I)c(C(=O)O)c1I)Nc1c(I)cc(I)c(C(=O)O)c1I [Adipiodone de méthylglucamine]
Kd: 78.1 µM
